# Laboratory results from patent US20090247495A1, “CU[…] AND USES THEREOF” (priority 2007, published 2009).
# “Also recorded” adds a separate entry of the source.
# What was measured:
# [1] = test system: HepG2-resistant (HepG2-R); assay: Hollow fiber assay, HepG2-resistant; format: in vivo, nude mice; conditions: up to 14 days
# Protocol: The hollow fiber assay (HFA) was developed by the NCI as a high-throughput, preliminary in vivo screening assay for the evaluation of anti-cancer agents. Human liver cancer cell lines HepG2 and HepG2-resistant (HepG2-R) were in vitro cultured inside hollow fibers for a short term (48 hours), followed by in vivo implantation at s.c. sites of the nude mice. Mice were treated with negative control (0.5% CMC), positive control (10 mg/kg 5-Fluorouracil) and cucurbitacin B (0.2 mg/kg) for up to 14 days. Then the fibers were excised and analyzed for cell viability by MTT assay. The efficacies of cucurbitacin B against HepG2 and HepG2-R were expressed as the percentage of the results obtained in the negative control group.
# Stat3 = assay: Western blot of Stat3 activation in K562 cells; format: cell-based, human; conditions: 50 μM
# Protocol: K562 leukemia cells were serum starved for 18 hours prior to cucurbitacin B treatment. The cells were incubated at a 75-mm culture flask filled with 10 ml growth medium (RPMI with 10% FBS and 1% PS) at the cell density of 1×10^5 cells/ml in the presence or absence of cucurbitacin B for various time intervals. The drug treatment were terminated by centrifugation at 1500 rpm for 5 minutes and the cells were rinsed twice with phosphate-buffered saline and lysed at 4° C. in a lysis buffer containing 50 mM Tris-HCl, pH7.5, […], 5 mM EDTA, 40 mM NaP2O7, 1% Triton X-100, 1 mM dithiothreitol, 200 μM Na3VO4, 100 μM phenylmethysufonyl fluoride, 2 μg/ml leupeptin, 4 μg/ml aprotinin and 0.7 μg/ml pepstatin. The insoluble protein lysate were removed by centrifugation for 10 minutes at 13000 rpm. Fifteen micrograms of protein lysate was resolved using SDS-polyacryamide gel electrophoresis (PAGE) (usually 8%-12% polyacrylamide gel) and then subjected to western blot anaylsis. Western blots were performed with antibodies specific for phosphorylated and total Stat3, c-Raf, Mek, and Erk. The blots were developed with the Enhanced Chemiluminescence Plus (ECL Plus) detection system (Amersham). • 6.1.7 GTPase Pull-Down Assay
# 15 μg cell lysate of each sample was separated in 8% SDS-PAGE followed by immuno-blotting with anti-Stat3 antibodies to detect the phosphorylated form of Stat3 as well as its total expression level.
# Cells were serum starved for 18 hours followed by treated with 50 μM cucurbitacin B for 10 minutes, 30 minutes, 1 hour and 4 hours, respectively. 15 μg cell lysate of each sample was separated in 8% SDS-PAGE followed by immuno-blotting with anti-Stat3 antibodies to detect the phosphorylated form of Stat3 as well as its total expression level.
# hsp27 = assay: Western blot of hsp27 in HepG2, HT29 and MCF-7 cells; format: cell-based, human
# Protocol: The human cancer cells line were serum starved for 18 hours prior to CuB/CuD treatment. Cells were incubated in a 6-well plate filled with 5 ml growth medium (RPMI with 0.2% FBS and 1% PS) at the cell density of 1×10^5 cells/ml, in the presence or absence of two different dosages of CuB/CuD for various time intervals. The drug treatment was terminated by centrifugation at 1,500 rpm for 5 minutes and the cells were rinsed twice with phosphate-buffered saline and lysed at 4° C. in a lysis buffer containing 50 mM Tris-HCl, pH7.5, 100 mM NaCl, 5 mM EDTA, 40 mM NaP2O7, 1% Triton X-100, 1 mM dithiothreitol, 200 μM Na3VO4, 100 uM phenylmethysufonyl fluoride, 2 μg/ml leupeptin, 4 μg/ml aprotinin and 0.7 μg/ml pepstatin. The insoluble protein lysate were removed by centrifugation for 10 minutes at 13,000 rpm. Fifteen micrograms of protein lysate was resolved using 10% SDS-polyacryamide gel electrophoresis (PAGE) and then subjected to western blot anaylsis. Western blots were performed with anti-Stat3, anti-Erk1/2 and anti-hsp27 antibodies specific for phosphor- and total Stat3, Erk and hsp27 proteins. The protein bands were then visualized with the Enhanced Chemiluminescence Plus (ECL Plus) detection system (Amersham). • 6.2.8.1 Inhibition Effect Cucurbitacin B/Cucurbitacin D on Stat3 Activation in HepG2 and HT29 Cells
# Cells were incubated either with CuB or CuD (25 ug/ml or the dosage of IC50) for various time intervals (5, 10 or 30 mins, 1 or 4 hours). The Stat3 activation was detected by western blot.
compound,measurement,setting,value
CC(=O)OC(C)(C)/C=C/C(=O)[C@](C)(O)C1[C@H](O)C[C@@]2(C)C3CC=C4C(C[C@H](O)C(=O)C4(C)C)[C@]3(C)C(=O)C[C@]12C (some centres unmarked) [cucurbitacin B],Cell growth rate compared with the negative control group,[1]; 0.2 mg/kg p.o.,about 75%
same,cell growth in hollow fibers,"[1]; 0.2 mg/kg, i.p., s.c. and p.o.",potently inhibited
same,inhibition on Stat3 activation,Stat3; 10 minutes to 30 minutes,No significant change
same,inhibition effect on Stat3 activation,Stat3; 1 hour to 4 hours,gradually increased at 1 hours and peak at 4 hours; also recorded: inhibited Stat3 phosphorylation
same,Stat3 activation (phosphorylated Stat3),Stat3; 4 hours,significant inhibited
same,Hsp27 activation,"hsp27; HT29, 10 minutes",significant up-regulation
same,Hsp27 activation,"hsp27; HepG2, 30 minutes",significant up-regulation
same,Hsp27 activation,"hsp27; MCF-7, 4 hours",significant up-regulation
